Test results taken from PubChem BioAssay (NCI).
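Assay format: 96-well plates, 48-hour exposure. At the GI50, growth is halved. TGI marks complete inhibition of growth.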

Tests used:
Assay in all cases: growth of human tumour cells (NCI), 48 h
[1] = tested on: ACHN renal
[2] = tested on: TK-10 renal
[3] = tested on: SNB-75 CNS
[4] = tested on: HT29 colon
[5] = tested on: NCI-H460 lung
[6] = tested on: RPMI-8226 leukemia
[7] = tested on: UACC-62 melanoma
[8] = tested on: SK-OV-3 ovarian
[9] = tested on: MCF7 breast
[10] = tested on: MDA-MB-231 breast

SMILES | TGI [1] [µM] | TGI [2] [µM] | TGI [3] [µM] | TGI [4] [µM] | TGI [5] [µM] | TGI [6] [µM] | GI50 [7] [µM] | TGI [7] [µM] | GI50 [1] [µM] | GI50 [8] [µM] | TGI [8] [µM] | GI50 [2] [µM] | GI50 [3] [µM] | GI50 [4] [µM] | GI50 [5] [µM] | GI50 [6] [µM] | GI50 [9] [µM] | TGI [9] [µM] | GI50 [10] [µM] | TGI [10] [µM]
CC1(C)C2CCC13CS(=O)(=O)N1O[C@]13C(=O)O2 (stereo not given in full) | > 100 | > 100 | > 100 | > 100 | > 100 | > 100 | – | – | – | – | – | – | – | – | – | – | – | – | – | –
O=C([CH-]C(=O)c1ccccc1)c1ccccc1.O=C([CH-]C(=O)c1ccccc1)c1ccccc1.[OH-].[OH-].[Ti+4] | > 100 | > 100 | > 100 | > 100 | > 100 | > 100 | 66.5 | > 100 | > 100 | 75.6 | > 100 | > 100 | 49.1 | > 100 | 60.3 | 41.3 | – | – | – | –
C=C1CCC2[C@@H](CCC3[C@]2(C)CCC[C@]3(C)C(=O)OC)[C@@H]1CC=O (stereo not given in full) | 82 | 77.5 | > 100 | 81 | 41.3 | 57.6 | – | 64.5 | – | > 100 | > 100 | 31 | 37.1 | – | – | 19.1 | – | – | – | –
C#CCOc1cccc(Nc2ncnc3c(NC(=O)CCl)cccc23)c1 | 37.8 | > 100 | – | 34.4 | 56 | 43.9 | 27 | > 100 | 18.1 | 51.2 | > 100 | 40.1 | – | 18.6 | 23.7 | 20.9 | 14.5 | 48.3 | 22.9 | 61
c1ccc(P(=Nc2ccccc2N=P(c2ccccc2)(c2ccccc2)c2ccccc2)(c2ccccc2)c2ccccc2)cc1 | 10.2 | – | 2.09 | 11.6 | 11 | 12.6 | – | 11.7 | – | – | 3.52 | – | – | – | – | – | – | – | – | –
COC(=O)C(C)(C)N=CN(C)C | > 100 | > 100 | > 100 | > 100 | > 100 | – | – | > 100 | – | – | > 100 | – | – | – | – | – | – | – | – | –
O=C(NC1CCCC1=O)c1ccccc1 (stereo not given) | > 100 | > 100 | > 100 | > 100 | > 100 | – | – | > 100 | – | – | > 100 | – | – | – | – | – | – | – | – | –
CC1(C)OCC(C(O)C2OC(C)(C)OC2/C=N\O)O1 (stereo not given) | > 100 | > 100 | > 100 | > 100 | > 100 | > 100 | – | – | – | – | > 100 | – | – | – | – | – | – | – | – | –
CNS(=O)(=O)NNS(=O)(=O)c1ccc(Cl)cc1 | > 100 | > 100 | – | > 100 | > 100 | > 100 | – | > 100 | – | – | > 100 | – | – | – | – | – | – | – | – | –
Cc1ccc(S(=O)OC2C3CC4CC(C3)CC2C4)cc1 (stereo not given) | > 100 | > 100 | > 100 | > 100 | > 100 | > 100 | – | > 100 | – | – | > 100 | – | – | – | – | – | – | – | – | –
CN(C)c1ccc(/C=C2\C=Cc3ccccc32)cc1 | > 100 | > 100 | 57 | > 100 | > 100 | > 100 | – | > 100 | – | – | > 100 | – | – | – | – | – | – | – | – | –
Cc1cc(N(CCC#N)CCC#N)ccc1/C=C1N=C(/C=C\c2ccccc2)N(c2ccc(Cl)cc2)C\1=O | > 100 | > 100 | > 100 | > 100 | > 100 | > 100 | – | – | – | – | > 100 | – | – | – | – | – | – | > 100 | – | > 100
CCCCCCN(N)C(=O)CC#N | > 100 | > 100 | > 100 | > 100 | > 100 | 58.5 | – | > 100 | – | – | > 100 | – | – | – | – | – | – | – | – | –
CCCCn1c(=O)c2c(nc3n2CCCN3CCc2ccc(OCC(=O)NCCN(CC)CC)cc2)n(CCCC)c1=O | 10.6 | 14.6 | 10 | 6.4 | 7.94 | 2.9 | – | – | 2.98 | 5.93 | 12.6 | 7.26 | 1.93 | 1.91 | 2.2 | 1.13 | 1.95 | 8.97 | 1.91 | 7.26
CC1CN1c1c(C(=O)/C=C/c2ccccc2)c(-c2ccccc2)nn(C)c1=O (stereo not given) | 33.7 | 61.4 | 40 | 29.4 | 41.2 | – | – | 36.6 | – | – | > 100 | – | – | – | – | – | – | – | – | –
CC(=O)Oc1ccccc1C(=O)/C=C/c1cccc([N+](=O)[O-])c1 | 4.99 | – | 14.4 | 4.92 | 9.4 | 16.1 | 3.29 | 12.2 | 2.29 | 12.9 | 29.2 | – | 2.94 | 2.36 | 2.4 | 3.18 | 1.99 | 10.6 | 3.48 | 13.5
Fc1cccc(C2SCc3nc4ccccc4n32)c1F (stereo not given) | > 100 | > 100 | > 100 | > 100 | > 100 | > 100 | – | > 100 | – | – | > 100 | – | – | – | – | – | – | – | – | –
N#Cc1ccc(N=Cc2c([O-])ccc3ccccc23)cc1.[C-]#[O+].[C-]#[O+].[Ir] | 18.7 | 13.5 | 24.9 | 42.3 | – | 25.1 | 12.2 | 24.6 | 6.32 | 21.1 | 39.1 | 4.35 | 11 | 17.6 | – | 5 | – | – | – | –
COc1cc2nc(NCCCCCNC(=O)c3ccco3)nc(N)c2cc1OC | > 100 | > 100 | 54.2 | > 100 | > 100 | > 100 | – | 52.6 | – | – | > 100 | – | – | – | – | – | – | – | – | –
CCC1(O)C(=O)OCc2c1cc1n(c2=O)Cc2cc3cc(N)ccc3nc2-1 (stereo not given) | 0.0142 | > 28.2 | 0.0375 | – | 0.189 | 4.94 | – | 0.251 | – | – | 0.207 | – | – | – | – | – | – | > 54.3 | – | > 64.8
C/C=C(\C)c1cc(O)c(C)c2c1Oc1cc(O)c(Cl)c(C)c1C(=O)O2 | 54.6 | 30.4 | 53.3 | 34.7 | 39.7 | – | – | – | – | – | – | – | – | – | – | – | – | – | – | –
O=C(O)/C(Cl)=C(\Cl)C(=O)Nc1ccc(Cl)c(Cl)c1Cl | 32 | 30.9 | 34.8 | 39.9 | 45.9 | 88.3 | – | 26.1 | – | – | 35.2 | – | – | – | – | – | – | – | – | –
